Source: ChEMBL document CHEMBL4334516, “Kinase Chemodiversity from the Arctic: The Breitfussins” (J Med Chem, 2019)

Columns and labels:
[1] = molecular target: T1, Mitogen-activated protein kinase kinase kinase 9 (Homo sapiens, UniProt P80192); experiment: Inhibition of MLK1 (unknown origin) assessed as residual enzyme activity at 5 uM by [33P]-ATP filter binding kinase assay relative to control
[2] = molecular target: T1, Mitogen-activated protein kinase kinase kinase 9; experiment: Inhibition of MLK1 (unknown origin) assessed as residual enzyme activity at 1 uM by [33P]-ATP filter binding kinase assay relative to control
[3] = molecular target: Mitogen-activated protein kinase kinase kinase 11 (Homo sapiens, UniProt Q16584); experiment: Binding affinity to wild-type human partial length MLK3 (I77 to W399 residues) expressed in bacterial expression system assessed as residual binding level at 10 uM by active-site directed competition binding assay based Kinomescan method relative to control
[4] = molecular target: T2, Serine/threonine-protein kinase 17B (Homo sapiens, UniProt O94768); experiment: Binding affinity to wild-type human full length DRAK2 (M1 to C372 residues) expressed in bacterial expression system by active-site directed competition binding assay based Kinomescan method
T2 sequence (O94768 whole entry): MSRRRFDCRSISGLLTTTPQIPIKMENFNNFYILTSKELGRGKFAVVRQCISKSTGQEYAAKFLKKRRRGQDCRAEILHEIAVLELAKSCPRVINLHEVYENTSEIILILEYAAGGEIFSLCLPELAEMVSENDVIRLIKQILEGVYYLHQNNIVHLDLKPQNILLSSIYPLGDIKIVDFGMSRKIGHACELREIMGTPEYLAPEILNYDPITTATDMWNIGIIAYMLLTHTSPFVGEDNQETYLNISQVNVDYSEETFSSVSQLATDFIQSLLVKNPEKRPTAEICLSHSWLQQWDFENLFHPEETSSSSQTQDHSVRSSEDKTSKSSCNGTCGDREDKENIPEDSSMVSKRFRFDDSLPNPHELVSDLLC

NCI-H460 = experiment: Cytotoxicity in human NCI-H460 cells assessed as reduction in cell viability incubated for 72 hrs by SRB assay; conditions: NCI-H460, 72 h
JIMT-1 = experiment: Cytotoxicity in human JIMT1 cells assessed as reduction in cell viability incubated for 72 hrs by SRB assay; conditions: JIMT-1, 72 h
[5] = Toxicity in zebrafish embryos assessed as survival at 140 uM after 72 hrs (reference value: 95%); set-up: species or system Danio rerio; conditions: in vivo
[6] = Toxicity in zebrafish embryos assessed as induction of necrosis by measuring unaffected embryos level at 1.4 uM after 72 hrs (reference value: 100%); set-up: species or system Danio rerio; conditions: in vivo
[7] = Toxicity in zebrafish embryos assessed as induction of general edema by measuring unaffected embryos level at 0.1 uM after 72 hrs (reference value: 100%); set-up: species or system Danio rerio; conditions: in vivo
[8] = Stability in human plasma assessed as parent compound remaining level at 5 uM incubated for 1 hr by LC-MS analysis; format: ADME, cell-free; conditions: read-out: Stability

T1 sequence (P80192 whole entry, looked up): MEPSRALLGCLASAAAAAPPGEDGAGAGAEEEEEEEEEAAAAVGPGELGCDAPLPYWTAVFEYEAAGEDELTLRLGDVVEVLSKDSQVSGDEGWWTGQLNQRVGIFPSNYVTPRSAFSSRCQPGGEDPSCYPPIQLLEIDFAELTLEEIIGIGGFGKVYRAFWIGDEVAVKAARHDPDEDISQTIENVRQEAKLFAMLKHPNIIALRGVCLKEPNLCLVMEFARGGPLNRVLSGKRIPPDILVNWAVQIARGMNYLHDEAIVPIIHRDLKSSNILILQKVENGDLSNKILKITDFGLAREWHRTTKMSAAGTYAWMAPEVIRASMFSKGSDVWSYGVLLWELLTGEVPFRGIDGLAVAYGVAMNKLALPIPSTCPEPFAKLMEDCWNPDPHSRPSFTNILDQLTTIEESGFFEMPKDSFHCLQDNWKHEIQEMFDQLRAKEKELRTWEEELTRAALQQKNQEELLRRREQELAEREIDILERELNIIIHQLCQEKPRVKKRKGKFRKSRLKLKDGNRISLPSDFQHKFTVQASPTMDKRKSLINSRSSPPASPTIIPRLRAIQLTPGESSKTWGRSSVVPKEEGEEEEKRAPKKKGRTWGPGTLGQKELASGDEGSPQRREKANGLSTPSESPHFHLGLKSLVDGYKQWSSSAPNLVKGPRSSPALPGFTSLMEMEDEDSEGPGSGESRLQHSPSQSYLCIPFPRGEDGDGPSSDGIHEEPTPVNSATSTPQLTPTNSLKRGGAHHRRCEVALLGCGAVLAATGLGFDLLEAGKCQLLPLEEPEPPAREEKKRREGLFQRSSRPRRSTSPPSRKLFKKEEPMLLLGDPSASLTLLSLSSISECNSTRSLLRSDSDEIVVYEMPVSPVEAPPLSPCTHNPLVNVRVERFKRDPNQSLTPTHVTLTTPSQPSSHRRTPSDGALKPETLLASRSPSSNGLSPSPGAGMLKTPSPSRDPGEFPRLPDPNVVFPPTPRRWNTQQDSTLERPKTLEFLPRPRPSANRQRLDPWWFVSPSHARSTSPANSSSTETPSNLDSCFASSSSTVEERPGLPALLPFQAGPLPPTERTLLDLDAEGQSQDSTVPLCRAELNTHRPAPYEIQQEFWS
Sequence of Mitogen-activated protein kinase kinase kinase 11 (Q16584 whole entry, looked up, the tested form may be a part): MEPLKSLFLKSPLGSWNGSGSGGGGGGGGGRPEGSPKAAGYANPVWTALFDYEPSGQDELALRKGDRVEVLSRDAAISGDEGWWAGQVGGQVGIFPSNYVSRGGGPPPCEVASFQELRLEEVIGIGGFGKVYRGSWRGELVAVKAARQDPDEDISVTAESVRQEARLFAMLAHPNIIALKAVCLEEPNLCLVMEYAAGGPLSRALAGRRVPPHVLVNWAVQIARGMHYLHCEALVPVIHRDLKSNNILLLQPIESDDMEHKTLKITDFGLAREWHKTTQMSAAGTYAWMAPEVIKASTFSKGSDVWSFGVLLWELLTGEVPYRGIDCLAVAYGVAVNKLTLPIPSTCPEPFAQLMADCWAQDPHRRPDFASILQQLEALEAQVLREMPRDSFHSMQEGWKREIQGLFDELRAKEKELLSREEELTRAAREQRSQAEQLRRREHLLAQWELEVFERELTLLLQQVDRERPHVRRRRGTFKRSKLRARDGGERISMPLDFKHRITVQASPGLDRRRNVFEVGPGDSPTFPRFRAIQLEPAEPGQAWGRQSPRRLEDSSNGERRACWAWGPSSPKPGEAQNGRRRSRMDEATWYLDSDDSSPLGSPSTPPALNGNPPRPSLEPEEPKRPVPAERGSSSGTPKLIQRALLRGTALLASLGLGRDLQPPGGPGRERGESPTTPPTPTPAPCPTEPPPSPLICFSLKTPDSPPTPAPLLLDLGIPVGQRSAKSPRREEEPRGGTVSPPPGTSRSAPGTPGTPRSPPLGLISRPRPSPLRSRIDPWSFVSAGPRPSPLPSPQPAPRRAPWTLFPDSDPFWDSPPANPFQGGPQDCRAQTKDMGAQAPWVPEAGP

Question: Which Activity [1] does the source give for `COc1cc(Br)cc2[nH]cc(-c3cnc(-c4ccc[nH]4)o3)c12` here?
Answer: 7%

Question: Which Activity [2] does the source give for `COc1cc2c(-c3cnc(-c4ccc[nH]4)o3)c[nH]c2cc1Br` here?
Answer: 26%

Question: And the Activity [3]?
Answer: 56%

Question: And the Kd [4]?
Answer: 0.39 µM

Question: And the IC50 (NCI-H460)?
Answer: 2 µM

Question: What about the IC50 (JIMT-1) of the same molecule?
Answer: 4.17 µM

Question: What about the survival at 72 h, 140 µM [5] of the same molecule?
Answer: 0%

Question: What about the Activity [6] of the same molecule?
Answer: 0%

Question: What about the Activity [7] of the same molecule?
Answer: 100%

Question: And the remaining at 1 h, 5 µM [8]?
Answer: 83%
